Source: US20060135458A1, “Antiviral oligonucleotides” (priority 2002, published 2006)
In the oligonucleotide strings, read from the 5' end, every base follows the letter of its sugar. An asterisk marks phosphorothioate; unmarked linkages are phosphodiester. Other units and linkages are bracketed, terminal groups are in braces. A string of capitals states the bases alone. d = 2'-deoxy (DNA)

Key:
[1] = system: Influenza A/HK/68 (H3N2); set-up: species or system Balb/c mice; settings: mouse, in vivo, ip, 180 mg/kg
[2] = system: HSV-1 (strain MacIntyre) lysate; assay: Fluorescence polarization binding to HSV-1 lysate; settings: FITC-labelled ON
[3] = system: HIV-1 (strain Mn) lysate; assay: Fluorescence polarization binding to HIV-1 lysate; settings: FITC-labelled ON
[4] = system: RSV (strain A2) lysate; assay: Fluorescence polarization binding to RSV lysate; settings: FITC-labelled ON
[5] = system: HSV-1 (strain KOS); assay: HSV-1 plaque reduction assay (PRA) in VERO cells; assay type: cell-based; settings: for IC50: VERO cells, HSV-1 strain KOS, linear regressions, read-out: IC50 (anti-HSV-1)
Experimental: The ability of PS-ONs to inhibit HSV-1 is measured in a plaque reduction assay (PRA). […] Upon reaching confluency, the media is changed to contain only 5% serum plus supplements as described above and cells are then exposed to HSV-1 (strain KOS, approximately 40-60 PFU total) in the presence of the test compound for 90 minutes. After viral exposure, the media is replaced with new “overlay” media containing 5% serum, 1% human immunoglobulins, supplements as described above and the test compound. Plaque counting is performed 3-4 days post infection following formalin fixation and cresyl violet staining of infected cultures.
(§1) Viral adsorbtion proceeds for 90 minutes, after which cells are washed and replaced with new “overlay” media containing 5% fetal calf serum and 1% human immunoglobins. Three to four days after adsorbtion, cells are fixed by formalin and plaques are counted following formalin fixation and cresyl violet staining.
Upon reaching confluency, the media is changed to contain only 5% serum plus supplements as described above and cells are then exposed to HSV-1 (strain KOS, approximately 40-60 PFU total) in the presence of the test compound for 90 minutes. After viral exposure, the media is replaced with new “overlay” media containing 5% serum, 1% human immunoglobulins, supplements as described above and the test compound. Plaque counting is performed 3-4 days post infection following formalin fixation and cresyl violet staining of infected cultures.

[6] = system: HSV-2 (strain MS2); assay: HSV-2 plaque reduction assay (PRA); assay type: cell-based
Experimental: The ability of PS-ONs to inhibit HSV-2 is measured by PRA. […] Upon reaching confluency, the media is changed to contain only 5% serum plus supplements as described above and cells are then exposed to HSV-2 (strain MS2, approximately 40-60 PFU total) in the presence of the test compound for 90 minutes. After viral exposure, the media is replaced with new “overlay” media containing 5% serum, 1% human immunoglobulins, supplements as described above and the test compound. Plaque counting is performed 3-4 days post infection following formalin fixation and cresyl violet staining of infected cultures.
as §1

[7] = set-up: Acid stability, pH 5 / Acid stability, pH 7: key to the marks not given beside the values
[8] = system: Phosphodiesterase II; settings: after 4 h at 37° C.
[9] = target: S1 Nuclease (Aspergillus oryzae, UniProt P24021); settings: after 4 h at 37° C.
[10] = target: Exonuclease I (Escherichia coli, UniProt P04995); set-up: key to the marks not given beside the values; settings: after 4 h at 37° C.
Exonuclease I, sequence (P04995 whole entry): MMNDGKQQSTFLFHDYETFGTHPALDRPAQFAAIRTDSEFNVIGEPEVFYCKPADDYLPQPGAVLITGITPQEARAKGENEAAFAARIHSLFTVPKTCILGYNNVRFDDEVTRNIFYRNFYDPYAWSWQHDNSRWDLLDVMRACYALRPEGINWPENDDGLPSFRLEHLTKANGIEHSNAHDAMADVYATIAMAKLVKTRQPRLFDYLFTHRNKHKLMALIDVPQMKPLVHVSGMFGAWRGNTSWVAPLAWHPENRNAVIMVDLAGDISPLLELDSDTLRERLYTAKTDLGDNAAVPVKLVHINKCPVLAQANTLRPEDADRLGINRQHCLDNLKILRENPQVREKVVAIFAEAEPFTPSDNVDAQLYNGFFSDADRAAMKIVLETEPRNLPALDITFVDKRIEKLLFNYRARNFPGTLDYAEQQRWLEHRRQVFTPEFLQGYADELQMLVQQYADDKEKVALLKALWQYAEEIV

S1 Nuclease, sequence (P24021 21-287): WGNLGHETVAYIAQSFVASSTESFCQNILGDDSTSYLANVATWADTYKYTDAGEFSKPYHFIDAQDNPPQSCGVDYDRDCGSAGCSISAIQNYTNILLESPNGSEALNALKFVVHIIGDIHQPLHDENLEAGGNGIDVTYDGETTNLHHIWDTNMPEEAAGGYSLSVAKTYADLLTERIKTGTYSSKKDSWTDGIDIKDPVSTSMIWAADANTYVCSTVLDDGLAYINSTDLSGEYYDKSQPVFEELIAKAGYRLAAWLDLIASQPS

Row | Compound | binding to HSV-1 lysate (fluorescence polarization, mP) [2] | binding to HIV-1 lysate (fluorescence polarization, mP) [3] | binding to RSV lysate (fluorescence polarization, mP) [4] | IC50 [5] | anti-HSV-2 activity [6] | other results
1 | NC(=O)c1ncn([C@@H]2O[C@H](CO)[C@@H](O)[C@H]2O)n1 [Ribavirin] |  |  |  |  |  | Viral titer (log10/g lung) Mean [1]: 3.3 log10/g lung
2 | A20: 20-mer PS-ON, polyA, 3′ FITC labelled in the binding test | the weakest interactor of these by a significant margin | the weakest interactor of these by a significant margin | the weakest interactor of these by a significant margin |  |  | 
3 | REP 1001: PS-ON directed against a replication origin in humans (343 ARS) (DNA dT*dT*dG*dA*dT*dA*dA*dA*dT*dA*dG*dT*dA*dC*dT*dA*dG*dG*dA*dC) |  |  |  | 2.76 µM | showed anti-HSV-2 activity | 
4 | REP 2001: PS-ON directed against the origin of replication in HSV (DNA dG*dA*dA*dG*dC*dG*dT*dT*dC*dG*dC*dA*dC*dT*dT*dC*dG*dT*dC*dC*dC*dA) |  |  |  | 0.77 µM | showed anti-HSV-2 activity | 
5 | REP 2017: random sequence 20-mer PS-ON (DNA dA*dC*dA*dC*dC*dT*dC*dC*dG*dA*dA*dG*dA*dC*dG*dA*dT*dA*dA*dC) | capable of HSV-1 and HIV-1 interaction | capable of HSV-1 and HIV-1 interaction |  |  |  | 
6 | REP 2029: A40 (polyA) PS-ON (DNA dA*dA*dA*dA*dA*dA*dA*dA*dA*dA*dA*dA*dA*dA*dA*dA*dA*dA*dA*dA*dA*dA*dA*dA*dA*dA*dA*dA*dA*dA*dA*dA*dA*dA*dA*dA*dA*dA*dA*dA) |  |  |  |  |  | relative anti-HSV-1 efficacy by sequence composition ([5]; PS-ONs of equivalent size, HSV-1 PRA): the least active; Acid stability, pH 1 ([7]; pH 1, 24 h at 37° C.): −; Acid stability, pH 2 ([7]; pH 2, 24 h at 37° C.): −; Acid stability, pH 2.5 ([7]; pH 2.5, 24 h at 37° C.): −; Acid stability, pH 3 ([7]; pH 3, 24 h at 37° C.): −; Acid stability, pH 4 ([7]; pH 4, 24 h at 37° C.): ++ (++ = less than 5-% degradation); Acid stability, pH 5 ([7]; pH 5, 24 h at 37° C.): +++; Acid stability, pH 7 ([7]; pH 7, 24 h at 37° C.): +++; Nuclease resistance, PII [8]: −; Nuclease resistance, S1 [9]: −; Nuclease resistance, Exo 1 [10]: ++++
7 | REP 3007: PS-ON directed against a plasmid (pBR322/pUC) replication origin (DNA dC*dT*dT*dG*dC*dG*dG*dT*dA*dT*dT*dC*dG*dG*dA*dA) |  |  |  | 5.33 µM | showed anti-HSV-2 activity | 
8 | T20: 20-mer PS-ON, polyT | the weakest interactors | the weakest interactors | the weakest interactors |  |  | 
9 | TG10: 20-mer PS-ON, TG repeat | the strongest interaction | the strongest interaction | the strongest interaction |  |  | 
